Results on twelve compounds are retold here after patent publication US20210009542A1 (Calico Life Sciences LLC, priority 2018, published 2021).

Structures are written as SMILES. Like-named read-outs stand apart in the source and are kept apart here.

The target of assay [1] is T1, His tagged PTPN2 (TC45) protein (Homo sapiens, UniProt P17706).
T1 construct: made in house
T1 sequence (P17706 with tags, fused parts or gaps isoform P17706-2): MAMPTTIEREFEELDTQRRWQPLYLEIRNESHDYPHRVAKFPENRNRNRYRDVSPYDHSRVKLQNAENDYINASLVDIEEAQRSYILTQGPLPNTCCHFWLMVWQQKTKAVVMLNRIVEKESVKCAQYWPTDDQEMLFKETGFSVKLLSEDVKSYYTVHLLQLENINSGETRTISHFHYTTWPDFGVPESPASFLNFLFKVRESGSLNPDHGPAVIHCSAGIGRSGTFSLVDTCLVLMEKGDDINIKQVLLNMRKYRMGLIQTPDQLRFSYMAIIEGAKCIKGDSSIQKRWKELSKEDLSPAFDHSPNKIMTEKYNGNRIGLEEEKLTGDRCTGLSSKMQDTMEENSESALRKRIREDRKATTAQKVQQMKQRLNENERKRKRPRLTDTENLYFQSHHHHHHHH
Nature of the assay: Mobility shift assay (MSA) for potency of PTPN2 inhibitors. In kind it is biochemical. Particulars: read-out: PTPN2 MSA IC50. The essentials:
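IC50 values were derived from % inhibition of substrate conversion, measured by microfluidic mobility shift (ex 488/em 530) after quenching. The fluorescent phosphotyrosine insulin-receptor peptide ([…]) reacted for 10 min at room temperature with 0.5 nM His-tagged TC45 PTPN2 that had been preincubated 10 min with compound (12 points, 1:3). Buffer was HEPES pH 7.5 with EGTA, EDTA, Tween 20 and DTT.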

Assay [2] deals with T2, His tagged full-length PTP1B protein (Homo sapiens, UniProt P18031).
T2 construct: made in house
T2 sequence (P18031 with tags, fused parts or gaps): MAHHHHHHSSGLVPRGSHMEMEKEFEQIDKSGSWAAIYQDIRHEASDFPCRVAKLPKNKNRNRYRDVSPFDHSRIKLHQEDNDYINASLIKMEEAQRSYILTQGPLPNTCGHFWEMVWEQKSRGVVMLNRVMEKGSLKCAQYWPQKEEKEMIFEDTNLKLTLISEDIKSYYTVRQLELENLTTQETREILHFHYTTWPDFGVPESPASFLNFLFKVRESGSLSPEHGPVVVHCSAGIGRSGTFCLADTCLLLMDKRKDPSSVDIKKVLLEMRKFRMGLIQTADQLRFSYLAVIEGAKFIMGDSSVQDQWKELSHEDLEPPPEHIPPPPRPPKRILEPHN
Nature of the assay: Mobility shift assay (MSA) for potency of PTP1B inhibitors. In kind it is biochemical. The procedure:
The enzymatic assay used to determine activity is a mobility shift assay using a LabChip EZ Reader by Caliper Life Sciences. The enzymatic reaction was carried out in assay buffer (50 mM HEPES pH 7.5, 1 mM EGTA, 10 mM EDTA, 0.01% Tween® 20, and 2 mM DTT). […] The enzyme (at 0.5 nM) was incubated with compound for 10 minutes at room temperature. […] The % inhibition was then used to calculate the IC50 values.

Assay [3] deals with B16F10 mouse melanoma cells. Nature of the assay: B16F10 IFNγ-induced cellular growth inhibition assay. In kind it is cell-based. To be noted: Mus musculus, B16-F10, 33 μM compound. In a few lines: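 Live-cell imaging of confluence every 6 h over 5 days at 37 °C tracked growth of mouse B16F10 melanoma cells seeded overnight at 500/well. Semi-log compound series (final 100–0.001 μM, 0.1% DMSO) ran in both arms, ±IFNγ at 0.5 ng/mL final; inhibition taken relative to DMSO plus IFNγ when IFNγ-free DMSO wells passed 95% confluence.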

Setting [4] is: +0.5 ng/mL IFNγ, relative to DMSO control, read-out: % B16F10 growth inhibition (+0.5 ng/mL IFNγ) @ 33 μM.
The mark [5] stands for this setting: no IFNγ, read-out: % B16F10 growth inhibition (no IFNγ) @ 33 μM.

Consider `CN(C)CCOc1ccc2cc(O)c(N3CC(=O)NS3(=O)=O)c(F)c2c1` [Compound 131, 5-{7-[2-(dimethylamino)ethoxy]-1-fluoro-3-hydroxynaphthalen-2-yl}-1λ^6,2,5-thiadiazolidine-1,1,3-trione], for which the results for the IC50 in assay [1] and in assay [2] were 1 to 10 nM and 10 to 100 nM, respectively. Besides, the inhibition at 33 µM in assay [3] (setting [4]) was above 90%; in assay [3] (setting [5]), below 25%.

For `O=C1CN(c2c(O)cc3ccc(OCCNS(=O)(=O)C4COC4)cc3c2F)S(=O)(=O)N1` [Compound 298, N-(2-{[8-fluoro-6-hydroxy-7-(1,1,4-trioxo-1λ^6,2,5-thiadiazolidin-2-yl)naphthalen-2-yl]oxy}ethyl)oxetane-3-sulfonamide], the IC50 in assay [1] and in assay [2] was below 1 nM in each case. Also, the inhibition at 33 µM was above 90% in assay [3] (setting [4]) and below 25% in assay [3] (setting [5]).

Take `NC12CC(CCOc3ccc4cc(O)c(N5CC(=O)NS5(=O)=O)c(F)c4c3)(C1)C2` [Compound 121, 5-{7-[2-(3-aminobicyclo[1.1.1]pentan-1-yl)ethoxy]-1-fluoro-3-hydroxynaphthalen-2-yl}-1λ^6,2,5-thiadiazolidine-1,1,3-trione]: the IC50 in assay [1] and in assay [2] was 1 to 10 nM each time. The inhibition at 33 µM was 60 to 90% in assay [3] (setting [4]) and below 25% in assay [3] (setting [5]).

On to `O=C1CN(c2c(O)cc3ccc(OCC4CC4(F)F)cc3c2F)S(=O)(=O)N1` (stereo not drawn) [Compound 210, 5-{7-[(2,2-difluorocyclopropyl)methoxy]-1-fluoro-3-hydroxynaphthalen-2-yl}-1λ^6,2,5-thiadiazolidine-1,1,3-trione], for which the results for the IC50 in assay [1] and in assay [2] were below 1 nM and 1 to 10 nM, respectively. The inhibition at 33 µM in assay [3] (setting [4]) was above 90%; in assay [3] (setting [5]), below 25%.

Regarding `CC[C@H]1C[C@@H]1COc1ccc2cc(O)c(N3CC(=O)NS3(=O)=O)c(F)c2c1` (racemic) [Compound 218, 5-(7-{[rac-(1R,2R)-2-ethylcyclopropyl]methoxy}-1-fluoro-3-hydroxynaphthalen-2-yl)-1λ^6,2,5-thiadiazolidine-1,1,3-trione], the IC50 in assay [1] and in assay [2] was 1 to 10 nM in each case. Further, the inhibition at 33 µM is 25 to 59% in assay [3] (setting [4]) and below 25% in assay [3] (setting [5]).

In the case of `CC(C)CC(=O)Nc1ccc2cc(O)c(N3CC(=O)NS3(=O)=O)c(F)c2c1` [Compound 157, N-[8-fluoro-6-hydroxy-7-(1,1,4-trioxo-1λ^6,2,5-thiadiazolidin-2-yl)naphthalen-2-yl]-3-methylbutanamide], the IC50 in assay [1] was in the range of 1 to 10 nM; in assay [2] it was 10 to 100 nM. Besides, the inhibition at 33 µM in assay [3] (setting [4]) was 60 to 90%; in assay [3] (setting [5]), below 25%.

Consider `O=C1CN(c2c(O)cc3ccc(OCC(O)C4CC4)cc3c2F)S(=O)(=O)N1` (stereo not drawn) [Compound 150, 5-[7-(2-cyclopropyl-2-hydroxyethoxy)-1-fluoro-3-hydroxynaphthalen-2-yl]-1λ^6,2,5-thiadiazolidine-1,1,3-trione], for which the IC50 in assay [1] and in assay [2] was 1 to 10 nM each time. In addition, the inhibition at 33 µM in assay [3] (setting [4]) is above 90%; in assay [3] (setting [5]), below 25%.

Take `O=C1CN(c2c(O)cc3ccc(OCCC4CCCO4)cc3c2F)S(=O)(=O)N1` (stereo not drawn) [Compound 213, 5-{1-fluoro-3-hydroxy-7-[2-(oxolan-2-yl)ethoxy]naphthalen-2-yl}-1λ^6,2,5-thiadiazolidine-1,1,3-trione]: the IC50 is below 1 nM in assay [1] and 1 to 10 nM in assay [2]. Further, the inhibition at 33 µM in assay [3] (setting [4]) was 60 to 90%; in assay [3] (setting [5]), below 25%.

With `CS(=O)(=O)N1CCC(Nc2ccc3cc(O)c(N4CC(=O)NS4(=O)=O)c(F)c3c2)C1` (stereo not drawn) [Compound 126, 5-(1-fluoro-3-hydroxy-7-{[1-(methanesulfonyl)pyrrolidin-3-yl]amino}naphthalen-2-yl)-1λ^6,2,5-thiadiazolidine-1,1,3-trione], the IC50 in assay [1] and in assay [2] was 1 to 10 nM throughout. The inhibition at 33 µM was 60 to 90% in assay [3] (setting [4]) and below 25% in assay [3] (setting [5]).

As to `O=C1CN(c2c(O)cc3ccc(C4CCCOC4)cc3c2F)S(=O)(=O)N1` (stereo not drawn) [Compound 249, 5-[1-fluoro-3-hydroxy-7-(oxan-3-yl)naphthalen-2-yl]-1λ^6,2,5-thiadiazolidine-1,1,3-trione], the IC50 is 1 to 10 nM in assay [1] and above 100 nM in assay [2]. In addition, the results for the inhibition at 33 µM in assay [3] (setting [4]) and in assay [3] (setting [5]) were 60 to 90% and below 25%, respectively.

For the compound `O=C1CN(c2c(O)cc3ccc(OCCC4CC4(F)F)cc3c2F)S(=O)(=O)N1` (stereo not drawn) [Compound 192, 5-{7-[2-(2,2-difluorocyclopropyl)ethoxy]-1-fluoro-3-hydroxynaphthalen-2-yl}-1λ^6,2,5-thiadiazolidine-1,1,3-trione], the IC50 in assay [1] and in assay [2] was below 1 nM throughout. In addition, the inhibition at 33 µM in assay [3] (setting [4]) was 60 to 90%; in assay [3] (setting [5]) it was below 25%.

Regarding `O=C1CN(c2c(O)cc3ccc(OCCC4CCNCC4)cc3c2F)S(=O)(=O)N1` [Compound 108, 5-{1-fluoro-3-hydroxy-7-[2-(piperidin-4-yl)ethoxy]naphthalen-2-yl}-1λ^6,2,5-thiadiazolidine-1,1,3-trione], the IC50 in assay [1] and in assay [2] was 1 to 10 nM each time. The inhibition at 33 µM was 25 to 59% in assay [3] (setting [4]) and below 25% in assay [3] (setting [5]).

A word on the IC50: it is the point on the concentration scale where inhibition reaches its midpoint.
